Source: ChEMBL document CHEMBL2074340, “Molecular characterization of human and rat organic anion transporter OATP-D” (Am J Physiol Renal Physiol, 2003)
Blank lines part the entries; values can stand above or below the molecule they belong to.

Assays:
[1] = molecular target: T1, Solute carrier organic anion transporter family member 3A1 (SLCO3A1/OATP3A1) (Homo sapiens, UniProt Q9UIG8); assay: TP_TRANSPORTER: inhibition of PGE2 uptake (PGE2: 0.015 uM) by Prostaglandin D2 at 0.15uM in Xenopus laevis oocytes; assay type: functional, cell-based, Oocyte; set-up: scale not given: the % may be the effect or the level left; conditions: Xenopus laevis oocytes expressing OATP3A1 (SLCO3A1), probe PGE2, read-out: Activity
T1 sequence (Q9UIG8 whole entry): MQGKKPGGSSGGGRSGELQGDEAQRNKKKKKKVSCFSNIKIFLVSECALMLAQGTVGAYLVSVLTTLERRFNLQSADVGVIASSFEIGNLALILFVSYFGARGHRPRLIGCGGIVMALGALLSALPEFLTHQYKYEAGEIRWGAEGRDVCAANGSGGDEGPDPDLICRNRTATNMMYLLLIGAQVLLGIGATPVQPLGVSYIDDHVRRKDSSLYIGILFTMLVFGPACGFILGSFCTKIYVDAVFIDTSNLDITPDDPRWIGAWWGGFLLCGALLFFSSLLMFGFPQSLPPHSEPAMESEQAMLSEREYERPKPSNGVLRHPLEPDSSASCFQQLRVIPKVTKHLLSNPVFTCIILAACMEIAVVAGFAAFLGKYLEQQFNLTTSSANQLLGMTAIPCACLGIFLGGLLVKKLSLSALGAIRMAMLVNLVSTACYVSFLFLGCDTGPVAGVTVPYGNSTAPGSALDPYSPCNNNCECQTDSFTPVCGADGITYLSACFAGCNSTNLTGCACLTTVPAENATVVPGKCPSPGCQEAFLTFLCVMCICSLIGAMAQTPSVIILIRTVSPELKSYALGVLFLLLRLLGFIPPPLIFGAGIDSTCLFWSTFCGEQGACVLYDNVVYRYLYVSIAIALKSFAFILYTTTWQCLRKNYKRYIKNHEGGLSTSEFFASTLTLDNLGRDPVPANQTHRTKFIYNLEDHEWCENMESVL

[2] = molecular target: T2, Solute carrier organic anion transporter family member 3A1 (Homo sapiens, UniProt Q9UIG8); assay: (§1) TP_TRANSPORTER: uptake in Xenopus laevis oocytes; assay type: functional, cell-based; conditions: oocyte
T2 sequence (Q9UIG8 whole entry): T1 sequence (Q9UIG8 whole entry)

[3] = molecular target: T3, Solute carrier organic anion transporter family member 3A1 (Rattus norvegicus, UniProt Q99N02); assay: as §1; assay type: functional, cell-based; conditions: oocyte
T3 sequence (Q99N02 whole entry): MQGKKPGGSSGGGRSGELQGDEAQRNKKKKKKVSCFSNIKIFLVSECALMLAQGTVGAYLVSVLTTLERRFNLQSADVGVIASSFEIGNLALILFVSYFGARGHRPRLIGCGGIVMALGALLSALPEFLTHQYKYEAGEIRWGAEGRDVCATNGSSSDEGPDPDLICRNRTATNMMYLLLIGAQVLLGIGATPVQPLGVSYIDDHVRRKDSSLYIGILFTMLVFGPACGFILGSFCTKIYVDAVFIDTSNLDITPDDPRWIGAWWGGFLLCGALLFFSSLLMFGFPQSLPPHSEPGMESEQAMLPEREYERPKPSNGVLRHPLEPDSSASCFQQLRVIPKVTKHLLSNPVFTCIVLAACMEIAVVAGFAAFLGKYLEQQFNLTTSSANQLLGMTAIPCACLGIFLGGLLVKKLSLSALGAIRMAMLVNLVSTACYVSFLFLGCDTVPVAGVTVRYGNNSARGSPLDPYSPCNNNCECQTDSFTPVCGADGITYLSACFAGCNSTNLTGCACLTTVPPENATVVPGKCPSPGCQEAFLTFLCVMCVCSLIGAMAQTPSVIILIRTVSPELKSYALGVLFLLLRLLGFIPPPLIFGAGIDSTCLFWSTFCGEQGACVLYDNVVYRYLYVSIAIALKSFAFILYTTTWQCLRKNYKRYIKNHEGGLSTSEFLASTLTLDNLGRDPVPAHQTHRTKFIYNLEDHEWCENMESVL

[4] = molecular target: T1, Solute carrier organic anion transporter family member 3A1 (SLCO3A1/OATP3A1); assay: TP_TRANSPORTER: inhibition of PGE2 uptake (PGE2: 0.015 uM) by Prostaglandin E1 at 0.15uM in Xenopus laevis oocytes; assay type: functional, cell-based, Oocyte; set-up: scale not given: the % may be the effect or the level left; conditions: Xenopus laevis oocytes expressing OATP3A1 (SLCO3A1), probe PGE2, read-out: Activity
[5] = molecular target: T2, Solute carrier organic anion transporter family member 3A1; assay: TP_TRANSPORTER: inhibition of PGE2 uptake (PGE2: 0.015 uM) by […] at 0.15uM in Xenopus laevis oocytes; assay type: functional, cell-based; set-up: scale not given: the % may be the effect or the level left; conditions: oocyte
[6] = molecular target: T2, Solute carrier organic anion transporter family member 3A1; assay: TP_TRANSPORTER: inhibition of PGE2 uptake (PGE2: 0.015 uM) by Prostaglandin F2alpha at 0.15uM in Xenopus laevis oocytes; assay type: functional, cell-based; set-up: scale not given: the % may be the effect or the level left; conditions: oocyte
[7] = molecular target: T1, Solute carrier organic anion transporter family member 3A1 (SLCO3A1/OATP3A1); assay: TP_TRANSPORTER: inhibition of PGE2 uptake (PGE2: 0.015 uM) by P-aminohippuric acid at 0.15uM in Xenopus laevis oocytes; assay type: functional, cell-based, Oocyte; set-up: scale not given: the % may be the effect or the level left; conditions: Xenopus laevis oocytes expressing OATP3A1 (SLCO3A1), probe PGE2, read-out: Activity
[8] = substrate: CCCCC[C@H](O)/C=C/[C@H]1[C@H](O)CC(=O)[C@@H]1CCCCCCC(=O)O; assay: as §1; assay type: functional, cell-based, Oocyte
[9] = substrate: CC/C=C\C[C@H](O)/C=C/[C@H]1[C@H](O)CC(=O)[C@@H]1C/C=C\CCCC(=O)O; assay: as §1; assay type: functional, cell-based, Oocyte

Molecule: CCCCC[C@H](O)/C=C/[C@H]1[C@H](O)CC(=O)[C@@H]1CCCCCCC(=O)O [ALPROSTADIL]
- Activity [3]: substrate [+]
- activity at 0.15 µM [4]: 0%

Molecule: CCCCC[C@H](O)/C=C/[C@@H]1[C@@H](C/C=C\CCCC(=O)O)[C@@H](O)C[C@H]1O [DINOPROST]
- Activity [2]: substrate [+]
- Activity [3]: substrate [+]
- Activity [6]: 0%

Molecule: CC#CCC(C)[C@H](O)/C=C/[C@@H]1[C@H]2C/C(=C/CCCC(=O)O)C[C@H]2C[C@H]1O (stereo not given in full) [ILOPROST]
- Activity [2]: is not a substrate [-]

Molecule: Nc1ccc(C(=O)NCC(=O)O)cc1 [AMINOHIPPURIC ACID]
- activity at 0.15 µM [7]: 30%

B1: Solute carrier organic anion transporter family member 3A1 (Homo sapiens) (protein)
chain: T1 sequence (Q9UIG8 whole entry)
- Km [8]: 0.0485 µM
- Km [9]: 0.0555 µM

Other lines, results leading:

- activity at 0.15 µM [1]: 30%
- Activity [2]: is not a substrate [-]
Molecule: CCCCC[C@H](O)/C=C/[C@H]1C(=O)C[C@H](O)[C@@H]1C/C=C\CCCC(=O)O [PROSTAGLANDIN D2]

- Activity [2]: is not a substrate [-]
Molecule: CN(Cc1cnc2nc(N)nc(N)c2n1)c1ccc(C(=O)N[C@@H](CCC(=O)O)C(=O)O)cc1 [METHOTREXATE]

- Activity [2]: is not a substrate [-]
Molecule: CCCCC[C@H](O)/C=C/[C@H]1OC(O)C[C@H](O)[C@@H]1C/C=C\CCCC(=O)O (stereo not given in full) [THROMBOXANE B2]

- Activity [5]: 0%
Molecule: PROSTAGLANDIN E4

- Activity [3]: substrate [+]
Molecule: PROSTAGLANDIN E5
